pIC50: −log10 of the molar value.
What was measured:
MNK2a = MNK2a (Homo sapiens (Human), UniProt Q9HBH9); assay: MNK2a in vitro kinase assay (Assay 2), ADP-Glo; format: biochemical; conditions: assay 2; read-out: MNK2 IC50
Text: B. MNK2a In Vitro Kinase Assay (Assay 2)

MNK1a = MNK1a (Homo sapiens (Human), UniProt Q9BUB5); assay: MNK1 in vitro kinase assay (Assay 3), Z'-LYTE; format: biochemical; conditions: for inhibition at 1 µM: compound concentration of 1 μM, read-out: MNK1 % INH
MNK1a, sequence (Q9BUB5 other isoform, or with tags, fused parts or gaps): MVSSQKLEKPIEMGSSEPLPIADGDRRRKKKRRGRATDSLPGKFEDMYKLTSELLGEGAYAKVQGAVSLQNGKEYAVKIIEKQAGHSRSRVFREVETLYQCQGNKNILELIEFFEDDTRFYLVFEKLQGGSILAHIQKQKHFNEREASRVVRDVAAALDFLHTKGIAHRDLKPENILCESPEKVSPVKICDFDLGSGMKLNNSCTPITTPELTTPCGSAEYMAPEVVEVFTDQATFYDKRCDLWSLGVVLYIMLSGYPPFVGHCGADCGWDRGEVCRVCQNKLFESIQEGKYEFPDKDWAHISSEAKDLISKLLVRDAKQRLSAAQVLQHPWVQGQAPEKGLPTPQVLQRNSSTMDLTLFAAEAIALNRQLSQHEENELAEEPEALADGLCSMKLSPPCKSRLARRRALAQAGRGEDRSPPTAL

MNK2a, sequence (Q9HBH9 whole entry): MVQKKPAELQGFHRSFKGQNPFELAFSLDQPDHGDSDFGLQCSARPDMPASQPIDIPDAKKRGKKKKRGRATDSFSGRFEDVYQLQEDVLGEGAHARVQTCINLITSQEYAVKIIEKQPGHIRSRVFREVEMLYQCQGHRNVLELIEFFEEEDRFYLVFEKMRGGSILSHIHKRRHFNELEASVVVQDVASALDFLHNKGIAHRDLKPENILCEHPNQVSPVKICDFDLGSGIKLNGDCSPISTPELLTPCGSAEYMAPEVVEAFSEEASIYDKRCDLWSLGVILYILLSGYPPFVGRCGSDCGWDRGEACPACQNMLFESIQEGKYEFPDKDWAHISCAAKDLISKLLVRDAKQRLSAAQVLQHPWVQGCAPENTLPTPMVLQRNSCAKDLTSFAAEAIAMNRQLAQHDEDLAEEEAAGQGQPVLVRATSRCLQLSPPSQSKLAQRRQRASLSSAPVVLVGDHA

| SMILES | pIC50 (MNK2a) | inhibition at 1 µM (MNK1a) | pIC50 (MNK1a) |
| --- | --- | --- | --- |
| CS(C)(=O)=Nc1cc(Cl)c2c(Nc3cccnc3O[C@H]3COC[C@@H]3O)ncnc2c1 [Example 1.14] | 8.30 | 96% | – |
| O=S1(=Nc2cc(Cl)c3c(Nc4cccnc4O[C@H]4COC[C@@H]4O)ncnc3c2)CCCC1 [Example 1.15] | 8.52 | 103% | 7.47 |
| O=S1(=Nc2cc(Cl)c3c(Nc4ccc(Cl)nc4O[C@H]4COC[C@@H]4O)ncnc3c2)CCC1 [Example 1.16] | 8.70 | 96% | – |
| O=S1(=Nc2cc(Cl)c3c(Nc4ccc(Cl)nc4O[C@H]4COC[C@@H]4O)ncnc3c2)CCCC1 [Example 1.17] | 8.70 | 103% | – |
| CS(C)(=O)=Nc1cc(Br)c2c(Nc3ccc(F)cc3O[C@H]3COC[C@@H]3O)ncnc2c1 [Example 1.18] | 8.70 | 97% | – |
| CS(C)(=O)=Nc1cc(Cl)c2c(Nc3ccc(Cl)nc3O[C@H]3COC[C@@H]3O)ncnc2c1 [Example 1.19] | 8.40 | 99% | – |
| O=S1(=Nc2cc(F)c3c(Nc4ccc(Cl)nc4O[C@H]4COC[C@@H]4O)ncnc3c2)CCCC1 [Example 1.20] | 8.70 | 97% | – |
| CS(C)(=O)=Nc1cc(F)c2c(Nc3ccc(Cl)nc3O[C@H]3COC[C@@H]3O)ncnc2c1 [Example 1.21] | 8.15 | 93% | – |
| Cc1cc(N=S(C)(C)=O)cc2ncnc(Nc3ccc(Cl)cc3O[C@H]3COC[C@@H]3O)c12 [Example 1.23] | 8.30 | 99% | – |
| O=S1(=Nc2cc(F)c3c(Nc4ccc(Cl)nc4O[C@H]4COC[C@@H]4O)ncnc3c2)CCC1 [Example 1.24] | 8.52 | 91% | – |
| CS(C)(=O)=Nc1cc(Cl)c2c(Nc3ccc(F)cc3O[C@@H]3COC[C@H]3O)ncnc2c1 [Example 1.26] | 8.52 | 99% | – |
| Cc1cc(N=S(C)(C)=O)cc2ncnc(Nc3ccc(Cl)cc3O[C@@H]3COC[C@H]3O)c12 [Example 1.31] | 8.22 | 91% | – |
| Cc1c(F)c(N=S(C)(C)=O)cc2ncnc(Nc3ccc(F)cc3O[C@H]3COC[C@@H]3O)c12 [Example 1.33] | 8.10 | 96% | – |
| CO[C@@H]1CN(C(=O)OCc2ccccc2)C[C@H]1Oc1cc(F)ccc1Nc1ncnc2cc(N=S(C)(C)=O)cc(C)c12 [Example 2.14] | 6.97 | 19% | – |
| CO[C@@H]1CN(C(=O)OCc2ccccc2)C[C@H]1Oc1ncccc1Nc1ncnc2cc(N=S3(=O)CCCC3)cc(C)c12 [Example 2.16] | 7.09 | 55% | – |
| CO[C@@H]1CN(C(=O)OCc2ccccc2)C[C@H]1Oc1ncccc1Nc1ncnc2cc(N=S(C)(C)=O)cc(C)c12 [Example 2.17] | 7.68 | 18% | – |
| Cc1cc(N=S(C)(C)=O)cc2ncnc(Nc3cccnc3O[C@@H]3CN(C)C[C@H]3O)c12 [Example 2.19] | 6.88 | 45% | – |

| SMILES | pIC50 (MNK2a) | inhibition at 1 µM (MNK1a) | pIC50 (MNK1a) |
| --- | --- | --- | --- |
| Cc1cc(N=S(C)(C)=O)cc2ncnc(Nc3cccnc3O[C@@H]3CN(S(C)(=O)=O)C[C@H]3O)c12 [Example 2.20] | 7.57 | 77% | – |
| CC(=O)N1C[C@@H](O)[C@H](Oc2ncccc2Nc2ncnc3cc(N=S(C)(C)=O)cc(C)c23)C1 [Example 2.21] | 6.75 | 57% | – |
| Cc1cc(N=S(C)(C)=O)cc2ncnc(Nc3cccnc3O[C@H]3COC[C@@H]3O)c12 [Example 2.28] | 7.96 | 85% | – |
| CCS(C)(=O)=Nc1cc(C)c2c(Nc3ccc(F)cc3O[C@H]3COC[C@@H]3O)ncnc2c1 (some centres unmarked) [Example 2.37] | 8.40 | 93% | – |
| Cc1cc(N=S(C)(C)=O)cc2ncnc(Nc3ccc(Cl)nc3O[C@H]3COC[C@@H]3O)c12 [Example 2.40] | 8.22 | 96% | – |
| Cc1cc(N=S2(=O)CCC2)cc2ncnc(Nc3ccc(Cl)nc3O[C@H]3COC[C@@H]3O)c12 [Example 2.43] | 8.52 | 100% | – |
| Cc1cc(N=S(C)(C)=O)cc2ncnc(Nc3ccc(Cl)nc3O[C@@H]3COC[C@H]3O)c12 [Example 2.48] | 8.15 | 90% | – |
| Cc1cc(N=S(C)(C)=O)cc2ncnc(Nc3cccnc3O[C@@H]3COC[C@H]3O)c12 [Example 2.51] | 7.96 | 81% | – |
| Cc1cc(N=S2(=O)CCC2)cc2ncnc(Nc3ccc(Cl)nc3O[C@@H]3COC[C@H]3O)c12 [Example 2.53] | 8.40 | 83% | – |
| CS(C)(=O)=Nc1cc(F)c2c(Nc3ccc(F)cc3O[C@H]3COC[C@@H]3O)ncnc2c1 [Example 2.55] | 8.52 | 91% | – |
| Cc1cc(N=[S@@](C)(=O)c2ccccc2)cc2ncnc(Nc3ccc(F)cc3O[C@@H]3COC[C@@H]3O)c12 [Example 2.64] | 8.05 | 88% | – |
| Cc1cc(N=S(C)(=O)C(C)C)cc2ncnc(Nc3ccc(F)cc3O[C@H]3COC[C@@H]3O)c12 (some centres unmarked) [Example 2.74] | 8.15 | 91% | – |
| Cc1cc(N=S(C)(=O)c2ccccc2)cc2ncnc(Nc3ccc(F)cc3O[C@H]3COC[C@@H]3O)c12 (some centres unmarked) [Example 2.75] | 8.10 | – | 7.02 |
| Cc1cc(N=S(C)(=O)C2CCOCC2)cc2ncnc(Nc3ccc(F)cc3O[C@H]3COC[C@@H]3O)c12 (some centres unmarked) [Example 2.78] | 7.96 | – | 6.97 |
| Cc1cc(N=S(C)(=O)C(C)(C)C)cc2ncnc(Nc3ccc(F)cc3O[C@H]3COC[C@@H]3O)c12 (some centres unmarked) [Example 2.79] | 8.00 | 85% | – |
| CC1CCS(=O)(=Nc2cc(F)c3c(Nc4ccc(F)cc4O[C@H]4COC[C@@H]4O)ncnc3c2)C1 (some centres unmarked) [Example 2.80] | 8.40 | 96% | – |
| Cc1cc(N=S(C)(=O)c2cccnc2)cc2ncnc(Nc3ccc(F)cc3O[C@H]3COC[C@@H]3O)c12 (some centres unmarked) [Example 2.81] | 7.85 | 91% | – |

Other lines, results leading:

| pIC50 (MNK2a) | inhibition at 1 µM (MNK1a) | pIC50 (MNK1a) | SMILES |
| --- | --- | --- | --- |
| 9.00 | 92% | – | O=S1(=Nc2cc(Cl)c3c(Nc4ccc(F)cc4O[C@@H]4COC[C@H]4O)ncnc3c2)CCC1 [Example 1.22] |
| 8.70 | 97% | – | O=S1(=Nc2cc(Cl)c3c(Nc4ccc(F)cc4O[C@@H]4COC[C@H]4O)ncnc3c2)CCCC1 [Example 1.25] |
| 8.52 | – | 7.48 | Cc1cc(N=S2(=O)CCCC2)cc2ncnc(Nc3ccc(Cl)cc3O[C@H]3COC[C@@H]3O)c12 [Example 1.27] |
| 8.40 | 96% | – | O=S1(=Nc2cc(C(F)(F)F)c3c(Nc4ccc(F)cc4O[C@H]4COC[C@@H]4O)ncnc3c2)CCCC1 [Example 1.28] |
| 8.70 | 100% | – | Cc1cc(N=S2(=O)CCC2)cc2ncnc(Nc3ccc(Cl)cc3O[C@H]3COC[C@@H]3O)c12 [Example 1.29] |
| 8.52 | 93% | – | Cc1cc(N=S2(=O)CCC2)cc2ncnc(Nc3ccc(Cl)cc3O[C@@H]3COC[C@H]3O)c12 [Example 1.30] |
| 8.40 | 94% | – | Cc1cc(N=S2(=O)CCCC2)cc2ncnc(Nc3ccc(Cl)cc3O[C@@H]3COC[C@H]3O)c12 [Example 1.32] |
| 7.77 | 85% | – | Cc1cc(N=S2(=O)CCCC2)cc2ncnc(Nc3ccc(F)cc3O[C@@H]3CN(C)C[C@H]3O)c12 [Example 2.5] |
| 7.04 | 63% | – | Cc1cc(N=S(C)(C)=O)cc2ncnc(Nc3ccc(F)cc3O[C@@H]3CN(C)C[C@H]3O)c12 [Example 2.6] |
| 7.85 | 79% | – | Cc1cc(N=S(C)(C)=O)cc2ncnc(Nc3ccc(F)cc3O[C@@H]3CN(S(C)(=O)=O)C[C@H]3O)c12 [Example 2.11] |
| 8.52 | – | 7.03 | Cc1cc(N=S2(=O)CCCC2)cc2ncnc(Nc3ccc(F)cc3O[C@@H]3CN(S(C)(=O)=O)C[C@H]3O)c12 [Example 2.12] |
| 7.80 | 90% | – | CC(=O)N1C[C@@H](O)[C@H](Oc2cc(F)ccc2Nc2ncnc3cc(N=S4(=O)CCCC4)cc(C)c23)C1 [Example 2.13] |
| 7.11 | 31% | – | CO[C@@H]1CN(C(=O)OCc2ccccc2)C[C@H]1Oc1cc(F)ccc1Nc1ncnc2cc(N=S3(=O)CCCC3)cc(C)c12 [Example 2.15] |
| 7.31 | – | 6.44 | Cc1cc(N=S2(=O)CCCC2)cc2ncnc(Nc3cccnc3O[C@@H]3CN(C)C[C@H]3O)c12 [Example 2.18] |
| 8.15 | 86% | – | Cc1cc(N=S2(=O)CCCC2)cc2ncnc(Nc3cccnc3O[C@@H]3CN(S(C)(=O)=O)C[C@H]3O)c12 [Example 2.22] |
| 7.64 | 75% | – | CC(=O)N1C[C@@H](O)[C@H](Oc2ncccc2Nc2ncnc3cc(N=S4(=O)CCCC4)cc(C)c23)C1 [Example 2.23] |
| 8.70 | 104% | 7.40 | Cc1cc(N=S2(=O)CCCC2)cc2ncnc(Nc3ccc(F)cc3O[C@H]3COC[C@@H]3O)c12 [Example 2.29] |
| 8.52 | 96% | – | Cc1cc(N=S2(=O)CCCCC2)cc2ncnc(Nc3ccc(F)cc3O[C@H]3COC[C@@H]3O)c12 [Example 2.38] |
| 8.40 | – | 7.41 | Cc1cc(N=S2(=O)CCCC2)cc2ncnc(Nc3ccc(Cl)nc3O[C@H]3COC[C@@H]3O)c12 [Example 2.42] |
| 8.52 | – | 7.18 | Cc1cc(N=S2(=O)CCCC2)cc2ncnc(Nc3ccc(Cl)nc3O[C@@H]3COC[C@H]3O)c12 [Example 2.54] |
| 8.40 | 99% | – | Cc1cc(N=S(C)(C)=O)cc2ncnc(Nc3ccc(F)cc3O[C@H]3CN(S(C)(=O)=O)C[C@@H]3O)c12 [Example 2.59] |
| 8.52 | – | 7.43 | Cc1cc(N=S2(=O)CCCC2)cc2ncnc(Nc3ccc(F)cc3O[C@H]3CN(S(C)(=O)=O)C[C@@H]3O)c12 [Example 2.60] |
| 7.48 | 78% | – | Cc1cc(N=S(C)(C)=O)cc2ncnc(Nc3ccc(F)cc3O[C@H]3CN(C)C[C@@H]3O)c12 [Example 2.62] |
